The source of these data is patent publication US12115193B2, “Methods of using RARγ agonists for cancer treatment” (Io Therapeutics, Inc., priority 2021, dated 2024).

The structures appear in SMILES notation.

One data set addresses T1, RARγ (Homo sapiens, UniProt P13631).
T1 construct: expression plasmids encoding the full-length receptors RARα and RARγ; expressed in transfected cells
T1 sequence (P13631 1-454): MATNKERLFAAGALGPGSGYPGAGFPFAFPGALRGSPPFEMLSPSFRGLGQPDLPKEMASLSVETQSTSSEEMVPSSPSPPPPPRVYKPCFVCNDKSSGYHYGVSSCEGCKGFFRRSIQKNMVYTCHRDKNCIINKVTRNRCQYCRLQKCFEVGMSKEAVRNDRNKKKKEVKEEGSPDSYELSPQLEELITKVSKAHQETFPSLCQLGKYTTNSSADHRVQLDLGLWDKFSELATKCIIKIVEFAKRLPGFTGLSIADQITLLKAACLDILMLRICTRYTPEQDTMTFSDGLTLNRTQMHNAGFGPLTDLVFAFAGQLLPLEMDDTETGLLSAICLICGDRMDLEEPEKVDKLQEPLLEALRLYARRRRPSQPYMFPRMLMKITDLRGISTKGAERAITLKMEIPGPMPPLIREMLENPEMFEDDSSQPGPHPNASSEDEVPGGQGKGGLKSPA
The experiment in a line: RARγ transactivation assay (luciferase reporter). Conditions: at all tested concentrations (0.5 to 625 nM); receptor not given. It is filed as cell-based. On the procedure:
Transactivation assays were conducted to test the specificity of binding activity of GA1E and GA2E for RARα and RARγ. Retinoic acid receptor transactivation activity and binding efficiencies were determined essentially as described in U.S. Pat. Nos. 5,298,429 and 5,071,773, incorporated by reference herein for all they teach regarding transactivation assays. Transactivation assays employed expression plasmids encoding the full-length receptors RARα and RARγ. Reporter plasmids containing the herpes virus thymidine kinase promoter and the appropriate retinoic acid receptor response element (RAREs) were positioned upstream of an open coding region encoding firefly luciferase.
The ability of GA1E and GA2E to activate RARα and RARγ in a transactivation assay was tested over a concentration range of 0.5 to 625 nM (GA2E) or 0.05 to 3320 nM (GA1E). GA1E induced less than 10% transactivation for RARα across the whole concentration range, but over 50% transactivation for RARγ at concentrations ≥25 nM and over 70% at concentrations 125 nM (FIG. 3A). GA2E induced more than 85% transactivation at all tested concentrations and less than 10% transactivation of RARα at concentrations of ≤25 nM (FIG. 3B).

The test system of a further data set is TIL in EMT6 tumors. In words: Flow cytometry of excised EMT6 tumors (Example 4). The data set is classed as in vivo, mouse. From the text:
At the end of the study of Example 3, the tumors were excised, the cells disaggregated and dispersed without use of proteases, stained with various agents, and subjected to flow cytometry. FIG. 5A-B present the results of the flow cytometry both as a percentage of cells and as the number of cells per tumor. […] Of these live cells, a substantial proportion were leukocytes (FIG. 5A, “CD45” panels). […] The majority of the T cells were CD4+(FIG. 5A, “CD4” panels), expected to be predominantly helper cells. Of the CD4^+ cells, only small proportions were T memory cells (expected to be predominantly TH1 memory cells) based on intracellular staining for IFNγ (FIG. 5B, “TH IFGγ” panels), TH17 cells based in intracellular staining for IL-17 (FIG. 5B, “TH IL17” panels), or Treg cell based on staining for CD25 and FoxP3 (FIG. 5B, “Treg” panels). About 25-30% of the T cells were CD8^+ (FIG. 5B, “CD8 T” panels), expected to be predominantly cytotoxic cells.

A further data set concerns PBMC. The experiment in a line: CMV recall antigen-stimulated PBMC: IFNγ production and CFSE proliferation. The settings on record: four days, vs vehicle control. It is filed as cell-based. On the procedure: Peripheral blood mononuclear cells (PBMC) from a cytomegalovirus (CMV)-positive donor were labeled with carboxyfluorescein succinimidyl ester (CFSE) and stimulated with CMV recall antigens at […]. The PBMC were then treated with one of three difference RARγ selective agonists or vehicle (DMSO) control and incubated at 37° C., 5% CO2 for four days. Culture supernatant was harvested and assayed for IFNγ production and the PBMC evaluated for proliferation by flow cytometry for CFSE dilution.
CFSE is a fluorescent reactive cell membrane permeable dye. After it is taken up, CFSE covalently modifies proteins and is retained in cells for long periods of time. The CFSE-modified proteins are generally evenly divided between daughter cells at each division so that fluorescent intensity of the cells falls by have at each division. Thus diminution of the dye's fluorescent signal can be used as a measure of proliferation.

The test system of another data set is JIMT-1 cells. The experiment in a line: NSG-B2M mice implanted with JIMT-1 Her2+ breast cancer cells and human PBMC. It is filed as in vivo. On the procedure:
The NSG-B2M mouse model is a severely immunocompromised animal, combining the lesions non-obese diabetic (NOD), severe combined immunodeficiency (SCID), IL-2 receptor γ null, and β2-microglobulin null. Human tumor cells readily engraft in this model and cells from the human immune system can also be engrafted in order to study various modes of cancer immunotherapy. Thus, one can model a human immune response to a human tumor in this system. Female NSG-B2M mice were injected in the mammary fat pad with 5×10^6 JIMT-1 cells (human breast carcinoma cell line) suspended in 0.1 mL of phosphate-buffered saline (PBS) with an equal volume of Matrigel®. Once tumors reached a volume of 100-200 mm^3, the mice were implanted with 1×10^7 human PBMC by subcutaneous injection into the right flank (pre-randomization). PBMC were obtained from two donors and distributed evenly between groups. When tumors reached an average tumor volume of 200-250 mm^3 (about 3 days post-PBMC injection) animals were matched by tumor volume into treatment and control groups, and dosing initiated. This first day of dosing was defined as Day 0. The mice were administered a daily oral dose of 10 mL/kg of 10% dimethyl sulfoxide (DMSO) in PBS as vehicle control or 10 mg/kg of GA2E dissolved in 10% DMSO in PBS as the treatment.
Tumor volume was measured twice weekly and on the day a study endpoint was reached. The mice were also weighed twice weekly and on the day a study endpoint was reached.
Study endpoint was defined as when the mean tumor volume of the control group (uncensored) reaches 1500 mm^3. If this occurs before Day 28, treatment groups and individual mice were permitted to be dosed and measured up to Day 28.

A further data set deals with EMT6 cells. The experiment in a line: EMT6 in vitro culture viability, Cell Titer Glo Assay. Conditions: 5 days. The data set is classed as cell-based, mouse. On the procedure:
EMT6 cells were cultured in vitro for 5 days the presence of a multiple concentrations of the RARγ agonists GA1E, GA2E, and GA3Ep and viability assessed by the Cell Titer Glo Assay® (Promega).

[1] abbreviates: 10 mg/kg oral daily, end of study.

As for `CC1(C)CCC(C)(C)c2cc(C(/C=C/c3ccc(C(=O)O)cc3F)=N/O)ccc21` [GA2E, 3-fluoro-4-((1E,3E)-3-(hydroxyimino)-3-(5,5,8,8-tetramethyl-5,6,7,8-tetrahydronaphthalen-2-yl)prop-1-en-1-yl)benzoic acid], the transactivation entry at RARγ is reported as “more than 85%”. Moreover, in the data set with TIL in EMT6 tumors (setting [1]), the “T cells (anti-CD3) as mean percentage of the leukocytes in the tumor” value was “about 30%” and the “number of TIL” value is recorded as “increased”. The “proportion of CD8+ T cells that were memory cells (intracellular IFNγ)” value with TIL in EMT6 tumors (vs vehicle control, did not achieve statistical significance) is on record as “numerically increased”. In the data set with PBMC (0.1 to 1000 nM), the IFNγ production entry is “increased IFNγ production substantially”. Also, the “Proliferation of CD8+ cells (CFSE dilution)” value in the data set with PBMC (increase small) is “increased”. Further, the “tumor volume after drug holiday started on Day 13” value with JIMT-1 cells (10 mg/kg daily oral until Day 12, then drug holiday) is recorded as “tumor shrinkage subsequent to Day 19”. For the same compound, the “tumor growth while the mice were receiving drug” value in the data set on JIMT-1 cells (10 mg/kg daily oral, Day 0 to Day 12) is on record as “No impact on tumor growth”. The weight loss in the data set with JIMT-1 cells (10 mg/kg daily oral, by Day 12) was more than 10%. Besides, in the data set with EMT6 cells, the “effect on viability as concentrations exceeded 10 μM” value is recorded as “rapidly became toxic” and the “effect on viability at concentrations below 1 μM” value was “no effect”. For the same compound, in the data set on EMT6 cells (Mus musculus, 120 h), half-maximal inhibition (IC50) was put at 19 µM.
